The assay addresses T1, Angiotensin II Receptor (Bos taurus, UniProt P25104).
T1 construct: The brownish tissue forming the adrenal cortex is scraped off and finely minced with scissors before homogenization; from tissue; host or cells: beef adrenal cortex, microsomal membranes (100,000 x g pellet)
T1 sequence (P25104 1-359): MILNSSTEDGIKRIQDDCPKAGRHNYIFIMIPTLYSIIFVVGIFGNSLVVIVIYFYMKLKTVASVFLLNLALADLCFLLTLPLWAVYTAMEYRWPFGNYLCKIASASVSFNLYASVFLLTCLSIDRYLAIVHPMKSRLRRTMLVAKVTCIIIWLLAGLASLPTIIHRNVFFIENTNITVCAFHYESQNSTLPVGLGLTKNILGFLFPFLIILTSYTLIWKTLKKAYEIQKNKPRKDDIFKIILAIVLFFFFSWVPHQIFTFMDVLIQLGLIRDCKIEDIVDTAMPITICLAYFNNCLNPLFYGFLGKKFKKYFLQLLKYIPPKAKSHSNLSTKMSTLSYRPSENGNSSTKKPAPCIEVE
Nature of the assay: Receptor binding assay: binding of [^125 I](Sar^1,Ile^8)AngII. As to conditions: beef adrenal cortex membranes, 60 min, room temperature. From the text:
Beef adrenals are obtained from a local slaughter house (Maxwell-Cohen). [^125 I](Sar^1,Ile^8)AngII, S. A. 2200 Ci/mmole, is purchased from Dupont (NEN®, Boston, Mass.). All unlabeled AngII analogs, Dimethylsulfoxide (DMSO), nucleotides, bovine serum albumin (BSA) are purchased from Sigma Chemical Co., St. Louis, Mo. U.S.A.
Approximately sixteen (16) to twenty (20) beef adrenal glands are processed as follows: fresh adrenal glands received on crushed ice are cleaned of fatty tissues and the tough membranes encapsulating the glands are removed and discarded. […] A 100 ul aliquot is withdrawn and the protein content of the preparation is determined by the Lowry's method (Lowry, O. H., Rosebrough, N. P., Farr, A. L. and Randall, R. J., Protein measurement with Polin phenol reagent. J. Biol. Chem., […], 265-275, 1951). […]
The binding of [^125 I](Sar^1 Ile^8)AngII to microsomal membranes is initiated by the addition of reconstituted membranes (1:10 vols.) in freshly made 50.0 mM Tris.HCl buffer, pH 7.4 containing 0.25% heat inactivated bovine serum albumin (BSA): 80 ul membrane protein (10 to 20 ug/assay) to wells already containing 100 ul of incubation buffer (as described above) and 20 ul [^125 I](Sar^1 Ile^8)AngII (Specific Activity, 2200 Ci/mmole). Non-specific binding is measured in the presence of 1.0 uM unlabeled (Sar^1,Ile^8)AngII, added in 20 ul volume. […]

On to `CCCCc1nc2ccc(C(O)CC3CCCN3)cc2c(=O)n1Cc1ccc(-c2ccccc2-c2nnn[nH]2)cc1` (racemic) [Example 80, CIS-(+/-)-2-Butyl-6-[1-hydroxy-2-(2-pyrrolidinyl)ethyl]-3-[[2'-(1H-tetrazol-5-yl)[1,1'-biphenyl]-4-yl]methyl] -4(3H)-quinazolinone], for which the IC50 came out at 41 nM.

By IC50 is commonly meant the point on the concentration scale where inhibition reaches its midpoint. A higher IC50 goes with a need for much substance.

These data come from patent US5292734A, “Angiotensin II receptor blocking 2,3,6 substituted quinazolinones” (American Cyanamid Company, priority 1993, dated 1994).
